We go through 4 compounds from patent US20100273203A1 (priority 2009, published 2010).

Data set [1] is described as follows: LC-MS/MS urinary metabolic profile of patients receiving warfarin. To be noted: for % R / % S (proportion in (S)-enantiomeric form) / % conjugated (proportion glucuronidated) / urinary concentration: urine; for urinary concentration: free and conjugated. The source says: All chemicals used in this study were of at least reagent grade. Unless otherwise specified, all chemicals and reagents were purchased from either Sigma-Aldrich (St. Louis, Mo.) or Thermo Fisher Scientific (Waltham, Mass.). […] Ethyl alcohol (100%) was purchased from AAPER (Shelbyville, Ky.). Re-combinant CYP2C9*1, CYP3A4, CYP1A2, and CYP2C19 were expressed in baculovirus-infected insect cells and purchased from BD Biosciences (San Jose, Calif.). Commercially available urine specimens from three females (F84, F85, and F87) were provided by the Emergency Response and Air Toxicants Branch, Division of Laboratory Science National Center for Environmental Health Centers for Disease Control and Prevention (DeKalb County, Ga.). Patient studies were conducted under IRB-approved protocols, and all patients signed informed consent documentation.
This analytical phase was accomplished by reverse-phase HPLC using a 4.6 mm×150 mm C18 Zorbax Eclipse 5 μm XDB-C18 column provided by Agilent (Santa Clara, Calif.). The operating temperature was 40° C., and the sample injection volume was 5.0 μL. HPLC mobile phases consisted H2O (0.1% acetic acid v/v) (A) and methanol (0.1% acetic acid v/v) (B). The flow rate was 1 mL/min. […] The total run time per sample was 10 min. Specific MS/MS experimental conditions used in this study are noted in Table 1.
To determine the relative abundance of the (R)-and (S)-enantiomers of each metabolite, a 4.6 mm×25 cm Chirobiotic V5 μm column supplied by Supelco (Bellefonte, Pa.) was incorporated during the second analytical phase. Mobile phases consisted of H2O (0.1% acetic acid v/v) (A) and acetonitrile (0.1% acetic acid v/v) (B) with a flow rate of 800 μL/min. Enantiomeric separations were accomplished under isocratic conditions (80% A and 20% B). The sample injection volume was 15.0 μL. Enantiomeric MS/MS analyses were performed in negative ion mode by electrospray ionization (ESI) using a Turbo IonSpray source. A total run time of 20 min was required for adequate resolution. Specific MS/MS experimental conditions used in this study are noted in the Table 2.
Each response was normalized to that of the internal standard, 7-hydroxycoumarin (10 μM). […] Measurements of these three metabolites were calculated by taking the difference of the amount measured in the first analytical phase, which contained both (R)-and (S) isomers from the amount of the (S)-isomer measured in the second analytical phase (eq 3). Glucuronidated metabolites were measured by incubating 250 μL of urine with 2000 units of GUS in 100 mM sodium acetate buffer, pH 5.0. The final volume for each of these reactions was 1 mL. Control reactions omitting GUS were included with each sample set. Reactions were incubated overnight at 37° C., after which they were stored at −80° C. Immediately before analysis, both samples were diluted with an equal volume of ethanol containing 7-hydroxycoumarin (10 μM final concentration). The difference between GUS-treated samples and controls represented the amount of glucuronidated metabolites present.

For data set [2], the target named is T1, CYP2C9 (Homo sapiens, UniProt P11712). Particulars: read-out: reported Km; cited from earlier work.
For data set [3], the target named is T2, CYP1A2 (Homo sapiens, UniProt P05177).
T2 sequence (P05177 1-516): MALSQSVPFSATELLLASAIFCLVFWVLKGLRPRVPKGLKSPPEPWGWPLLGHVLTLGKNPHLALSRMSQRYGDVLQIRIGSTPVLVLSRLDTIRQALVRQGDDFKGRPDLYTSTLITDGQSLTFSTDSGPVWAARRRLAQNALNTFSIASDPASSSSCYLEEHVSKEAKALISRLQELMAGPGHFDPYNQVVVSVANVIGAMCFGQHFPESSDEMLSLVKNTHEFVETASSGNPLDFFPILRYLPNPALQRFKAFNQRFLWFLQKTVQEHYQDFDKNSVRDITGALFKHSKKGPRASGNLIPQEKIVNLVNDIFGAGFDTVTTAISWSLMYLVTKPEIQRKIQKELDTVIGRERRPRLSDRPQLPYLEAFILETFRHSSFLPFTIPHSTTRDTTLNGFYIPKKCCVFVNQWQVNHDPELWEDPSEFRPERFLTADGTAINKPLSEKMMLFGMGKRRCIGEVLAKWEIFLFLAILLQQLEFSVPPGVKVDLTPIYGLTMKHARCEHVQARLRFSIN
In words: biochemical.

In a further data set the target is UGT1A1 (Homo sapiens, UniProt P22309). To be noted: glucuronidation; racemic OHWars. From the text:
(§1) The characterization of hepatic and extrahepatic glucuronidation may be made based on glucuronidation studies with 100 commercially available HLM and 100 intestinal microsomal preparations available in our laboratory. […] Both racemic mixtures and separated R and S enantiomers may be assayed. […] Activities of extrahepatic (UGT1A8 and UGT1A10) and hepatic (UGT1A1, UGT1A3, and UGT1A9) isoforms may be compared to that of their respective microsomal preparations, and assign the contribution of specific UGTs to product formation by the human samples.

A further data set concerns the target UGT1A10 (Homo sapiens, UniProt Q9HAW8). Particulars: glucuronidation; racemic OHWars.
From the text: as §1

Data set [4] deals with T1, CYP2C9. Particulars: read-out: IC50 toward recombinant CYP2C9 activity; P450-Glo, 50 μM Luciferin H; racemic compounds. How it is done: Hydroxywarfarins were screened for inhibitory potential toward recombinant CYP2C9 using the Promega (Madison, Wis.) CY2C9 P450-Glo™ Assay using the manufacturer's protocol. These IC50 studies were analyzed on a PerkinElmer Victor^3V™ 1420 Multilabel Counter. Recombinant CYP2C9, 50 nM, was incubated with 50 μM Luciferin H, and six concentrations of each hydroxywarfarin from approximately 10 nM to 4 mM final concentration, as optimized for each compound. The appropriate volume of hydroxywarfarin stocks in 100% ethanol were added to each well prior to addition of the substrate and enzyme, and the ethanol was allowed to evaporate at room temperature to minimize solvent effects on CYP2C9 activity. A final DMSO concentration of 1% was present in the reactions due to the P450-Glo Luciferin H. The reaction was initiated upon addition of an NADPH regenerating solution (BD Biosciences) and quenched with a luciferase quench (Promega) at 30 min.

Data set [5] has as its target CYP2C9 present in the human liver microsomes (Homo sapiens, UniProt P11712). To be noted: for Ki / Mechanism of inhibition: S-warfarin metabolism. How it is done: (§2) For each hydroxywarfarin, at least 4 independent experimental replicates were performed.
(§3) MS/MS experimental conditions was used as described previously (6).
(§4) The most probable inhibition mechanism for recombinant CYP2C9 and human liver microsome reactions was identified using DynaFit ver. 3.28 (Biokin, Ltd) (20). Data from each set of hydroxywarfarin experiments were fit to traditional reversible inhibition mechanisms (competitive, uncompetitive, noncompetitive, or mixed). The respective kinetic parameters (Ki and Ki′) were set as variables, while the kinetic parameters (Vmax and Km) were constants based on values obtained from uninhibited reactions. The most probable mechanism was then identified using the Akaike Information Criterion (AICc) for model discrimination (21).

The target of data set [6] is T3, CYP2C9*1 (Homo sapiens, UniProt P11712). Particulars: for Ki / Mechanism of inhibition: S-warfarin metabolism. As for the experimental part:
as §2, §3, §4

The target of data set [7] is T2, CYP1A2. Particulars: read-out: IC50 for CYP marker reaction; P450-Glo marker reaction.
Data set [8] deals with T3, CYP2C9*1. Particulars: read-out: IC50 for CYP marker reaction; P450-Glo marker reaction.
The target in data set [9] is T4, CYP3A4 (Homo sapiens, UniProt P08684). To be noted: read-out: IC50 for CYP marker reaction; P450-Glo marker reaction.
In the next data set the test system is plasma proteins. Particulars: cited from earlier work.
The nature of data set [10]: Estimated unbound levels in plasma of long-term warfarin therapy patients. To be noted: estimated from literature data.
The target of the next data set is UGT1A8 (Homo sapiens, UniProt Q9HAW9). Particulars: glucuronidation; racemic OHWars.
From the text: as §1

Another data set concerns the target UGT1A9 (Homo sapiens, UniProt O60656). To be noted: glucuronidation; racemic OHWars.
From the text: as §1

The target of data set [11] is T1, CYP2C9. To be noted: not metabolized by CYP2C9; cited from earlier work.
The target in data set [12] is T4, CYP3A4. In words: Steady-state metabolism of R- and S-warfarin by recombinant CYP3A4.
Description: (§5) Reactions were initiated upon addition of an NADPH regenerating system [2 μU μL-1 glucose 6-phosphate dehydrogenase, 10 mM glucose 6-phosphate, 2 mM MgCl2, 1 mM NADP^+]. […] The quenched reactions were centrifuged and the resulting supernatant containing substrate and products resolved and quantified by UPLC-MS/MS. Each experiment was performed in at least 4 independent experimental replicates.
(§6) The flow rate was constant at 250 μL/min. […] Electrospray conditions were as follows: spray voltage of 4500 V, sheath gas pressure 45, auxiliary gas pressure 20, and collision energy of 15-15 eV (compound specific).
(§7) Final metabolite concentrations were calculated from the ratio of metabolite area to internal standard area in the sample and compared to calibration curves as determined from the UPLC-MS/MS method. All compounds were quantified relative to authentic standards. The resulting kinetic data were analyzed with GraphPad Prism 5® software. Non-linear regression analysis was used to fit steady-state data to the Michaelis-Menten equation to determine the Vmax and Km parameters.
Another data set concerns the target CYP3A7 (Homo sapiens, UniProt P24462). In words: Steady-state metabolism of R- and S-warfarin by recombinant CYP3A7.
The mark [13] stands for this setting: based on S-6-hydroxywarfarin formation.
Where [14] appears, read: 7-hydroxywarfarin formation as marker.
[15] abbreviates: 10-hydroxywarfarin formation, 37° C, pH 7.4.

What is called Km is the substrate concentration at which the rate is half of its maximum. For orientation: IC50 means the concentration at which inhibition is half-maximal. Usually Ki stands for a dissociation constant, usually derived from enzyme kinetics or from competition with a known ligand.

Where two headings read alike, the source gives them in different places. A value given as a limit tells only on which side of the number the result lay.

Chain of CYP3A7 (P24462 whole entry): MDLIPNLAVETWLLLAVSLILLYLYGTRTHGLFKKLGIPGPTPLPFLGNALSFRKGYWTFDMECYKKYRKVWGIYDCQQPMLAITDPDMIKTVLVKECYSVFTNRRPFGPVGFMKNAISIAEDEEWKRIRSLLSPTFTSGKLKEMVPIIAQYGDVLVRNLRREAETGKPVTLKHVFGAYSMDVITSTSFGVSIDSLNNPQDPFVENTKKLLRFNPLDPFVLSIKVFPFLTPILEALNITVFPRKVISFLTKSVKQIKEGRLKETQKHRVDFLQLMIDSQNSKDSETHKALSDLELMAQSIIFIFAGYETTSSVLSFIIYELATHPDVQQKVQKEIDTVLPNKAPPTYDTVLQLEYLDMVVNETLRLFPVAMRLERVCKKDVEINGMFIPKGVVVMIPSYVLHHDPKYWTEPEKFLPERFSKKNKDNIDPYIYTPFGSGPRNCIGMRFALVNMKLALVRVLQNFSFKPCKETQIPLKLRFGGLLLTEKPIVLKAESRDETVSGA
T4 sequence (P08684 whole entry): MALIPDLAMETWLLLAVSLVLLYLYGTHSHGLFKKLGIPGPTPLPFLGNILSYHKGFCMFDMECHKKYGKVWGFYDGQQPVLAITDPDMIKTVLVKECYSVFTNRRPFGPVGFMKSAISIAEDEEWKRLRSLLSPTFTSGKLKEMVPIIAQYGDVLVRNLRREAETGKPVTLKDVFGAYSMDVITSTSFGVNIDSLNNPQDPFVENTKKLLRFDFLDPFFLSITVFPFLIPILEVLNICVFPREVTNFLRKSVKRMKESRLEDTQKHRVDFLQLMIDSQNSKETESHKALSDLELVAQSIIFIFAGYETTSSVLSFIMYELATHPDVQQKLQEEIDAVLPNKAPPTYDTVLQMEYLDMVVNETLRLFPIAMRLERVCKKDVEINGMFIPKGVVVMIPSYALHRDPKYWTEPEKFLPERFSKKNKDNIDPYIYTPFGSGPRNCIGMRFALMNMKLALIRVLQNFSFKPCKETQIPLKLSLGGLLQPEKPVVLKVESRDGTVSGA
T1 sequence (P11712 whole entry): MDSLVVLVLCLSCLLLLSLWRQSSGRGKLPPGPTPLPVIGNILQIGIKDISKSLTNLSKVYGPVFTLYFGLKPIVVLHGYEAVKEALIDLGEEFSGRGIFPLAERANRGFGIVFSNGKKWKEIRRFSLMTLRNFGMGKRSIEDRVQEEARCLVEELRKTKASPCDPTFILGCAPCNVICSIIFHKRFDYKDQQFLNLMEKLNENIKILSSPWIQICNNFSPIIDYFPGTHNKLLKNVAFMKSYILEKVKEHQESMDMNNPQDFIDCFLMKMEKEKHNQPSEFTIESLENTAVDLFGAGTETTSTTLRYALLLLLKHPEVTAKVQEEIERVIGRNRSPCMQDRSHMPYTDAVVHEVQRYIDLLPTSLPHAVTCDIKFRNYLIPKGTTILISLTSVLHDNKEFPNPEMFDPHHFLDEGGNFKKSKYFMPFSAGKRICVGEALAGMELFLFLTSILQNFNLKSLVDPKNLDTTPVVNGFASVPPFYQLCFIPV
Chain of CYP2C9 present in the human liver microsomes (P11712 whole entry): as above
Chain of UGT1A10 (Q9HAW8 26-530): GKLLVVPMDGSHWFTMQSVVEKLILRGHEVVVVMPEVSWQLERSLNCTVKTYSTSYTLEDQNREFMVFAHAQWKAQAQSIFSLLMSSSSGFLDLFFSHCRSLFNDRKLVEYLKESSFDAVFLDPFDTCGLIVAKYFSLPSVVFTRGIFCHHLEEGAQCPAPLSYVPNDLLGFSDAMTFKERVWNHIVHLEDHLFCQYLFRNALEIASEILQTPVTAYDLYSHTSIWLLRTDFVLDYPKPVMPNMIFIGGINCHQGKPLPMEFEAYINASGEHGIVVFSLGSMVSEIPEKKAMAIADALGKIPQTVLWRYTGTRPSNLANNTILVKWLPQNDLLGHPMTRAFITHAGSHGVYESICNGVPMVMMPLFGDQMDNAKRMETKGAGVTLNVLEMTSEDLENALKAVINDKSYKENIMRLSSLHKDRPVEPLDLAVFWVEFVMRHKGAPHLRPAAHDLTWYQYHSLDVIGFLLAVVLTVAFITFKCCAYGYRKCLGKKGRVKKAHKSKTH
Chain of UGT1A1 (P22309 26-533): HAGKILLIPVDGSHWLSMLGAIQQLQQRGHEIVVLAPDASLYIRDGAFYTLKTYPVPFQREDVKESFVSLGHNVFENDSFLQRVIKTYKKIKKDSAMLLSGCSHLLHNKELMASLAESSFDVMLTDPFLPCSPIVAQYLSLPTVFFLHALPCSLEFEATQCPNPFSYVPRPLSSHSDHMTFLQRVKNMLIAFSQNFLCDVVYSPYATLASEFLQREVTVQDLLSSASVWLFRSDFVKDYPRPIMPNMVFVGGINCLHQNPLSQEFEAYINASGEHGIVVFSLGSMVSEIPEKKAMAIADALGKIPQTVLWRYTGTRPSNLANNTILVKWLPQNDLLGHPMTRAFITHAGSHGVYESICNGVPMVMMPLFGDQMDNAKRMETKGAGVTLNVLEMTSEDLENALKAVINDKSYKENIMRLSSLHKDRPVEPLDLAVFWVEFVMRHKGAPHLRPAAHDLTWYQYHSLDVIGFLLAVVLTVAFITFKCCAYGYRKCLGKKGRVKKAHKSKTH
Chain of UGT1A8 (Q9HAW9 26-530): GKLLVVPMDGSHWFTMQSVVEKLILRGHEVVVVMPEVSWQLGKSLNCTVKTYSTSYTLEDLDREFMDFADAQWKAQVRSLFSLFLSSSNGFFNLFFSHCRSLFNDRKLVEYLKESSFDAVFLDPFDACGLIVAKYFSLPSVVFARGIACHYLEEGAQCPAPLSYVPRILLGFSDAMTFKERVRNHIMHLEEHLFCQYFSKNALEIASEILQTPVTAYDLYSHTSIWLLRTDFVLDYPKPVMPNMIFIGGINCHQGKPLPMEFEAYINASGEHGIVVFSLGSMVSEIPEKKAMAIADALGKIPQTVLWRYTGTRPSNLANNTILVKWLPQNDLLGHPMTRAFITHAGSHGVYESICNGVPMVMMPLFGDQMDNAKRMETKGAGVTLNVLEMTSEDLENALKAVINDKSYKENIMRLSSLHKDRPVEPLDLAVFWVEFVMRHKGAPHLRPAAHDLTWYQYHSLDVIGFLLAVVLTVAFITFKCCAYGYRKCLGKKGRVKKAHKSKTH
Chain of UGT1A9 (O60656 26-530): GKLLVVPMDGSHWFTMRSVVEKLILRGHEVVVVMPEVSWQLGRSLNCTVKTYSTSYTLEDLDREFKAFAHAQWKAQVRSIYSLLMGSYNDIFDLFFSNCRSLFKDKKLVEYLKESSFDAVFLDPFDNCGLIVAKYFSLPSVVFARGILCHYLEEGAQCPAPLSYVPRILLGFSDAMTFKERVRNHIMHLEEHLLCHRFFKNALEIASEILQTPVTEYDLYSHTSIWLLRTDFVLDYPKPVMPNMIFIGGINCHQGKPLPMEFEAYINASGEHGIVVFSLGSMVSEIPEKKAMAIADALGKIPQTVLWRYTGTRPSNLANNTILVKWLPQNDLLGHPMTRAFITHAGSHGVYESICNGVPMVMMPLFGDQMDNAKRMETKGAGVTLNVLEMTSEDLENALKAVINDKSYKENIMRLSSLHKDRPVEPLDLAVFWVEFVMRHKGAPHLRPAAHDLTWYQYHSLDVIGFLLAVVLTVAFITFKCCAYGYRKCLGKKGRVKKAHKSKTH
Description for CYP3A7: as §5, §6, §7

On to `CC(=O)CC(c1ccccc1)c1c(O)c2ccccc2oc1=O` (racemic) [WAR, warfarin], for which, in data set [1] (female, human, in vivo), the “individual concentrations in urine” value is 10 to 200 nM. Also, the Km at CYP2C9 [2] is 2.6 µM. The compound further gave a half-maximal inhibitory concentration (IC50) on CYP1A2 [3] of 740 µM.
On to `CC(=O)CC(c1ccccc1)c1c(O)c2ccc(O)cc2oc1=O` (centres unmarked) [7-OH-WAR, 7-hydroxywarfarin], for which the “% R” value in data set [1] (patient F84) stood at 80%; in data set [1] (patient F85), 38%; in data set [1] (patient F87) it was 52%. The “% S (proportion in (S)-enantiomeric form)” value in data set [1] (patient F84) was 20%; in data set [1] (patient F85), 62%; in [1] (patient F87), 48%. For the same compound, the “% conjugated (proportion glucuronidated)” value in data set [1] (patient F84) was determined as 69%; in data set [1] (patient F85), 28%; in data set [1] (patient F87), 14%. Moreover, the figures for the urinary concentration in [1] (patient F84), in data set [1] (patient F85) and in data set [1] (patient F87) were 1964 nM, 2404 nM and 724 nM, respectively. Moreover, the Michaelis constant (Km) was 58.8 ± 24 µM on UGT1A1 and 220 ± 40 µM on UGT1A10. Moreover, the Vmax was 1.3 ± 0.1 nmol/mg protein/min at UGT1A1 and 1.0 ± 0.1 nmol/mg protein/min on UGT1A10. Also, the half-inhibitory concentration (IC50) is 35 µM at CYP2C9 [4], 400 µM on CYP1A2 [7], 45.7 µM at CYP2C9*1 [8] and above 500 µM on CYP3A4 [9]. Moreover, the values for the inhibition constant (Ki) (in data set [5] (setting [13]); on CYP2C9*1 [6] (setting [13])) were 64 µM and 10 µM, respectively. For the same compound, the Mechanism of inhibition entry (in data set [5] (setting [13]); on CYP2C9*1 [6] (setting [13])) was “Competitive” throughout. Further, the “Ki, fold higher than the marker Km” value in [5] (human liver microsomes) was 8.5 fold; on CYP2C9*1 [6] (recombinant CYP2C9) it was 4.5 fold. In addition, the “plasma protein binding affinity relative to warfarin” value in the data set on plasma proteins is “three- to four-fold lower affinity”. For the same compound, the “mean unbound concentration in human plasma (estimated)” value in [10] is on record as 6.2 ng/mL.
Take `CC(=O)CC(c1ccccc1)c1c(O)c2cccc(O)c2oc1=O` (centres unmarked) [8-OH-WAR, 8-hydroxywarfarin]: the figures for the “% R” value in data set [1] (patient F84), in [1] (patient F85) and in [1] (patient F87) were 100%, 98% and 69%, respectively. The “% S (proportion in (S)-enantiomeric form)” value is given as 0% in [1] (patient F84), 2% in data set [1] (patient F85) and 31% in data set [1] (patient F87). For the same compound, the “% conjugated (proportion glucuronidated)” value is 31% in [1] (patient F84), 53% in data set [1] (patient F85) and 7% in data set [1] (patient F87). Moreover, the urinary concentration stood at 111 nM in data set [1] (patient F84), 109 nM in data set [1] (patient F85) and 231 nM in data set [1] (patient F87). Moreover, the Km at UGT1A10 was 383 ± 81 µM; at UGT1A8 it was 206 ± 70 µM; at UGT1A9 it was 107 ± 36 µM. For the same compound, the Vmax amounted to 25 ± 2 nmol/mg protein/min at UGT1A10, 1.5 ± 0.1 nmol/mg protein/min on UGT1A8 and 1.7 ± 0.1 nmol/mg protein/min on UGT1A9. Besides, the 50% inhibitory concentration (IC50) was 16 µM at CYP2C9 [4], 830 µM on CYP1A2 [7], 17.2 µM at CYP2C9*1 [8] and 240 µM at CYP3A4 [9]. The inhibition constant (Ki) in data set [5] (setting [14]) stood at 13 µM; on CYP2C9*1 [6] (setting [14]), 21 µM; at CYP2C9*1 [6] (7-hydroxywarfarin formation as marker, mixed inhibition), 103 µM. Moreover, the Mechanism of inhibition entry in data set [5] (setting [14]) is listed as “Competitive”; on CYP2C9*1 [6] (setting [14]), “Mixed”. Further, the “plasma protein binding affinity relative to warfarin” value with plasma proteins is given as “three- to four-fold lower affinity”.
Turning to `CC(=O)C[C@H](c1ccccc1)c1c(O)c2ccccc2oc1=O` [R-warfarin, (R) warfarin], the inhibition constant Ki at CYP2C9 [11] was around 8 µM. Further, the Michaelis constant (Km) at CYP3A4 [12] (4′-hydroxywarfarin formation) was determined as 36 µM; on CYP3A4 [12] (10-hydroxywarfarin formation), 16 µM; at CYP3A7 (4′-hydroxywarfarin formation) it was 1390 µM; at CYP3A7 (10-hydroxywarfarin formation) it was 54 µM. The Vmax on CYP3A4 [12] (4′-hydroxywarfarin formation) is reported as 98 pmol product/min/nmol P450; at CYP3A4 [12] (setting [15]), 1055 pmol product/min/nmol P450; on CYP3A7 (4′-hydroxywarfarin formation), 260 pmol product/min/nmol P450; at CYP3A7 (setting [15]), 116 pmol product/min/nmol P450.
